From article PMC9218685, “Legume Plant Peptides as Sources of Novel Antimicrobial Molecules Against Human Pathogens” (Frontiers in Molecular Biosciences, 2022)
Values after ≈ are worked out from the molar mass of the structure shown. Peptide text beside a SMILES is read from it.

What was measured:
Human red blood cells = test: Hemolysis assay; type: cell-based; details: 1 h at 37°C in TBS pH 7.2, peptides 0.4–100 μM, hemoglobin release OD560, relative to 0.5% Triton X-100 = 100%
Method: Human blood was purchased from the Regional Blood Centre in Szeged. The use of human blood for the hemolysis assay has been authorized by the Regional Hungarian Ethics Committee and approved by the Ethics Review Sector of DG RTD (European Commission) in connection with EK’s ERC AdG SymBiotics. The cells from 10 ml of EDTA-blood were centrifuged at 1,500 × g for 1 min and washed several times in TBS buffer (10 mM Tris, pH = 7.2, 150 mM NaCl) until the supernatant became colorless. The cells were then resuspended in 12 ml TBS buffer and 100 μl of this cell suspension was incubated for 1 h at 37°C in the presence of NCR peptides (0.4–100 μM). The cells were centrifuged at 1,500 g for 1 min and the supernatants were transferred into sterile 96-well plates and the hemoglobin release was measured at OD560 (Hidex Sense Microplate Reader with Plate Reader Software version 5064). […] The hemolytic activity was calculated as % of red blood cell disruption relative to the positive control sample lysed with detergent Triton X-100.
While AMPs can be very effective against microbes, they should not be toxic for human cells. […] Disruption of red blood cells was measured by spectrophotometry and compared to samples lysed with the detergent Triton X-100 (Supplementary Figure S2). […]

[1] = peptides carrying a StrepII tag at their C-terminus, 25 µM, 10% Fetal Bovine Serum, 37°C, 18 h; StrepTactin-HRP Western blot
Method: Peptides were incubated in 10% Fetal Bovine Serum at 37°C for 18 h. Full length NCRs were used at 25 μM, while short derivatives at 50 μM. The serum proteins and peptides were separated by sodium dodecyl sulfate-polyacrylamide gel electrophoresis (SDS-PAGE, 12% bis-tris gel, MES buffer pH 7.3) and visualized by Coomassie blue staining. NCRs with StrepII tag at their C-terminus were also detected by Western blot analysis using Precision Protein StrepTactin-HRP conjugate antibody (BioRad) and Clarity Western ECL (BioRad) for chemiluminescence detection according to the supplier.
FIGURE S3 Serum stability assay. Full length NCRs, StrepII-tagged NCR peptides (25 µM) and shorter NCR derivatives (50 µM) were incubated in water or in 10% Fetal Bovine Serum (FBS) for 18 hours at 37°C. Serum proteins and the peptides were separated by SDS-Page and visualized by Coomassie blue staining or in the case of StrepII-tagged NCRs also with Western blot. […]

[2] = tested on: Enterococcus faecalis (ATCC 29212); type: cell-based
Procedure, shortened: (§1)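 About 10^7 log-phase bacteria were treated for 3 h in potassium-phosphate buffer (pH 7.4) with 2-fold peptide dilutions from 25 µM downward. MBC was the lowest concentration that completely eliminated viable bacteria.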

[3] = tested on: Listeria monocytogenes (ATCC 19111); type: cell-based; details: ATCC 19111, 3 h
Procedure, shortened: as §1

[4] = tested on: Escherichia coli (ATCC 8739); type: cell-based; details: ATCC 8739, 3 h
Procedure, shortened: as §1

[5] = tested on: Salmonella enterica (ATCC 13076); type: cell-based; details: ATCC 13076, 3 h
Procedure, shortened: as §1

[6] = tested on: Pseudomonas aeruginosa (ATCC 27853); type: cell-based; details: ATCC 27853, 3 h
Procedure, shortened: as §1

[7] = tested on: Acinetobacter baumannii (ATCC 17978); test: microbe, parasite or virus in culture; type: cell-based; details: ATCC 17978, 3 h
Procedure, shortened: as §1

[8] = tested on: E. coli, S. enteritidis, P. aeruginosa, L. monocytogenes, S. aureus, E. faecalis, K. pneumoniae and A. baumannii; test: Antimicrobial activity assay, spectrum over the eight tested pathogenic bacteria; type: cell-based; details: 3 h treatment of ~10^7 log phase bacteria, peptides 25 to 0.8 µM; active = MBC ≤25 µM
Procedure, shortened: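 Log-phase bacteria (~10^7) treated 3 h with NCR peptides in potassium-phosphate buffer pH 7.4, two-fold dilutions from 25 µM to 0.8 µM. MBC is the lowest concentration completely eliminating viable bacteria. Strains: E. faecalis ATCC 29212, S. aureus HNCMO112011, L. monocytogenes ATCC 19111, P. aeruginosa ATCC 27853, E. coli ATCC 8739, S. enterica ATCC 13076, K. pneumoniae NCTC 13440, A. baumannii ATCC 17978.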

[9] = tested on: E. coli in vitro coupled transcription/translation; test: In vitro transcription/translation assay (GFP production); type: biochemical; details: RTS 100 E. coli HY Kit, 100 µM peptide or streptomycin, 2 technical parallels
Method: RTS 100 E. coli HY Kit (biotechrabbit Gmbh, Germany, catalog number: BR1400102) was used for the in vitro transcription/translation assay, according to the protocol. pIVEX2.3 control vector was used to produce GFP protein and to measure the translational efficiency. The amount of GFP produced was measured using a Hidex Plate Reader (Hidex Sense Microplate Reader with Plate Reader Software version 5064). […] All peptides and streptomycin were used at 100 µM concentration.
FIGURE 5 GFP production by E. coli in vitro coupled transcription-translation assay in the presence of 100 µM NCR or streptomycin. GFP fluorescence represents the average values of 2 technical parallels with their respective standard deviations (SD). *: p < 0.05, ****: p < 0.0001, as determined by one-way ANOVA.

[10] = quoted in the Introduction; ref Kim et al., 2015; cited from earlier work
Excerpt: In the Inverted Repeat Lacking Clade (IRLC) of legumes, in addition to defensins, a related family of peptides has evolved that encodes nodule specific, cysteine-rich NCR peptides that play essential roles in symbiosis ([Mergaert et al., 2003]; [Nallu et al., 2013]; [Montiel et al., 2017]). Legume plants in symbiosis with their rhizobium bacterium partner form nitrogen-fixing root nodules. The primary role of the NCR peptides is to convert bacteria into large polyploid, non-cultivable nitrogen-fixing bacteroids in the nodule cells ([Van de Velde et al., 2010]). This is a terminal differentiati ... || IRLC includes 56 genera and more than 4,000 species ([Duan et al., 2021]), and presumably all species have NCRs as it was confirmed in a few selected species. The genus Astragalus, with 2,300–2,500 members, has the highest number of species among angiosperms ([Duan et al., 2021]). In A. canadensis 108 NCRs have been identified ([Montiel et al., 2017]), while in the members of the Vicioid subclade 200–700 NCRs ([Ištvánek et al., 2014]; [Montiel et al., 2017]), thus, it is reasonable to assume that IRLC species in total express hundreds of thousand different NCRs, providing almost unlimited amou ...

In the case of CC[C@H](C)[C@H](NC(=O)CNC(=O)[C@@H](NC(=O)[C@H](CCCNC(=N)N)NC(=O)[C@@H]1CCCN1C(=O)[C@H](CS)NC(=O)[C@H](CC(=O)O)NC(=O)[C@H](CCCCN)NC(=O)[C@H](CC(=O)O)NC(=O)[C@H](CCCCN)NC(=O)[C@@H](NC(=O)[C@H](CS)NC(=O)[C@H](CO)NC(=O)[C@H](Cc1c[nH]cn1)NC(=O)[C@H](CC(N)=O)NC(=O)[C@H](CCCNC(=N)N)NC(=O)[C@H](CC(C)C)NC(=O)[C@H](CC(N)=O)NC(=O)[C@@H](NC(=O)[C@@H](N)CO)[C@@H](C)CC)[C@@H](C)CC)C(C)C)C(=O)N[C@@H](CC(C)C)C(=O)N[C@@H](CC(N)=O)C(=O)N[C@H](C(=O)N[C@@H](CCCNC(=N)N)C(=O)N[C@@H](CS)C(=O)N[C@@H](CCCNC(=N)N)C(=O)N[C@@H](CCCCN)C(=O)NCC(=O)N[C@@H](Cc1ccccc1)C(=O)N[C@@H](CS)C(=O)N[C@H](C(=O)N[C@@H](Cc1c[nH]cn1)C(=O)N[C@H](C(=O)N[C@@H](CO)C(=O)O)[C@@H](C)CC)C(C)C)[C@@H](C)CC [MsNCR465] (H-SINLRNHSCIKDKDCPRVGILNIRCRKGFCVHIS-OH; N-terminus assumed), the “Hemolytic activity on human red blood cells” value (Human red blood cells) is reported as “mild hemolysis at 50 and 100 μM”.
For CC[C@H](C)[C@H](N)C(=O)N[C@@H](CCCNC(=N)N)C(=O)N[C@H](C(=O)N[C@@H](Cc1c[nH]cn1)C(=O)N[C@@H](CS)C(=O)N[C@@H](CCCCN)C(=O)N[C@@H](CC(=O)O)C(=O)N[C@@H](CC(=O)O)C(=O)N[C@@H](Cc1ccccc1)C(=O)N[C@@H](CC(=O)O)C(=O)N[C@@H](CS)C(=O)N[C@H](C(=O)N[C@@H](CCC(=O)O)C(=O)N[C@@H](CC(N)=O)C(=O)N[C@@H](CCCNC(=N)N)C(=O)N[C@@H](CC(C)C)C(=O)N[C@@H](CCC(N)=O)C(=O)N[C@H](C(=O)NCC(=O)N[C@@H](CS)C(=O)N[C@@H](CCCNC(=N)N)C(=O)N[C@@H](CC(C)C)C(=O)N[C@@H](CCC(N)=O)C(=O)N[C@@H](CCCNC(=N)N)C(=O)N[C@@H](CCC(=O)O)C(=O)N[C@@H](CCCCN)C(=O)N1CCC[C@H]1C(=O)N[C@@H](CCCNC(=N)N)C(=O)N[C@@H](CS)C(=O)N[C@H](C(=O)N[C@@H](CC(N)=O)C(=O)N[C@@H](CC(C)C)C(=O)N[C@H](C(=O)N[C@@H](CS)C(=O)N[C@@H](CCCNC(=N)N)C(=O)N[C@@H](CS)C(=O)N[C@@H](CC(C)C)C(=O)N[C@@H](CCCNC(=N)N)C(=O)N[C@@H](CCCNC(=N)N)C(=O)O)C(C)C)C(C)C)C(C)C)[C@@H](C)CC)[C@@H](C)CC [NCR055] (H-IRIHCKDDFDCIENRLQVGCRLQREKPRCVNLVCRCLRR-OH; N-terminus assumed), the “Stability in serum by Western blot” value [1] was “stable in the presence of FBS”, the “Ability to kill E. faecalis” value ([2]; 3 h, ~10^7 log phase bacteria, peptides ≤25 µM) was “able to kill” and the “MBC Enterococcus faecalis” value ([2]; ATCC 29212, 3 h) was 12.5 µM (≈ 59.5 µg/mL). The “MBC Listeria monocytogenes” value [3] was 3.125 µM (≈ 14.9 µg/mL), the “MBC Escherichia coli” value [4] was 6.25 µM (≈ 29.7 µg/mL) and the “MBC Salmonella enterica” value [5] was 6.25 µM (≈ 29.7 µg/mL). For the same compound, the “MBC Pseudomonas aeruginosa” value [6] was 6.25 µM (≈ 29.7 µg/mL), the “MBC Acinetobacter baumannii” value [7] was 3.125 µM (≈ 14.9 µg/mL) and the “Antibacterial spectrum over the eight tested bacterial strains” value [8] was “effective against six bacterial strains but not against S. aureus and K. pneumonia”.
In the case of [H]/N=C(/N)N[C@H]1[C@H](O)[C@@H](O)[C@H](O[C@@H]2O[C@@H](C)[C@](O)(C=O)[C@H]2O[C@@H]2O[C@@H](CO)[C@H](O)[C@@H](O)[C@@H]2NC)[C@@H](N/C(N)=N\[H])[C@@H]1O [streptomycin], the “Effect on GFP production (translation)” value [9] is reported as “inhibited strongly”.
In the case of “DRECDTDTECQKKFPGVNAHHLWCDNGNCVSYPK [NCR211, anionic M. truncatula NCR peptide]”, the net charge [10] is listed as −2.1 and the “Antibacterial spectrum over the eight tested bacterial strains” value [8] is listed as “inactive”.
